From patent US8178688B2, “Benzamidine derivatives, process for the preparation thereof and pharmaceutical composition comprising the same” (Dong Wha Pharmaceutical Co., Ltd., priority 2004, dated 2012)

test system: osteoclast differentiation; test: Inhibitory effects on osteoclast differentiation (co-culture of bone marrow cells with osteoblast, TRAP staining); type: cell-based, mice; settings: Mus musculus, Osteoclast, 168 h, read-out: % inhibitory activity on osteoclastogenesis
Procedure: The effect of benzamidine derivatives of the present invention on osteoclast proliferation and differentiation process was evaluated via co-culture with osteoblast.
Tibia and Femora were aseptically ectomized from male ddY mice of 6-8 weeks to harvest bone marrow cells by using a syringe (21G, Korea Green Cross).
The bone marrow cells were suspended in 5 mL α-MEM medium (Gibco BRL Co.) containing sodium bicarbonate (2.0 g/L), streptomycin (100 mg/L) and penicillin ([…]). The harvested cells were centrifuged at 600×g for 5 mins to collect the whole quantity. To remove the red blood cells within bone marrow cells, 3 mL of Tris HCl (0.83% NH4Cl, pH7.5) was added and well mixed. After centrifuging above cells, the numbers of bone marrow cells were counted and then, the bone marrow cells were immediately used for co-culture system with osteoblast.
The calvaria were aseptically ectomized from neonate ICR mice of 1˜2 days, washed with PBS solution and incubated with a mixture of enzyme solution (0.2% collagenase and 0.1% dispase) at 37° C. gentle shaker. This procedure was sequentially repeated (10, 10, 10, 20, 20 and 20 mins), and then the calvaria cells having the characteristics of osteoblast mostly released from III-VI digestion groups were collected and washed with the medium (serum-free α-MEM). The washed cells were cultivated in α-MEM medium containing 10% FBS for 2˜3 days. After subculturing, these cells were used for this experiment, and diluted to reach the concentration of 1×10^6 cell/mL for storage at −70° C.
Benzamidine derivatives of the present invention were dissolved in a sterile distilled water or ethanol to make desired concentrations following dilution. The final volume of specimen added to the medium was determined at the ratio of 1:1000.
Bone marrow cells prepared, in the above and osteoblast from calvaria were co-cultured for osteoclast differentiation. Both bone marrow cells (25,000 cells/cm^2) and osteoblast (10,000 cells/cm^2) were plated on a 96 well plate in α-MEM medium containing FBS with specimen, and then cultured with test materials for 7 days. Differentiation factors, such as dexamethasone (10^−7M) and vitamin D3 (10^−8M), were also continuously added to the medium from the first day of cultivation. The medium was changed with fresh media containing a mixture of specimens and differentiation factors every 2˜3 day.
TRAP was used as a marker to measure osteoclast in consideration of its characteristics showing a positive reaction to TRAP staining solution. TRAP staining solution was prepared in a manner that 5 mg of naphtol AS-MS phosphate (sigma N-4875), a substrate and 25 mg of coloring agent (Fast Red Violet LB salt) were dissolved in N,N-dimethylformamide (about 0.5 mL), 0.1N NaHCO3 buffer solution (50 mL) containing 50 mM tartaric acid was added, and the reaction mixture was stored at refrigerator prior to use.
After culturing the cells for 7 days, the medium was removed from the wells, the cells were once washed with PBS solution and fixed to PBS containing 10% formalin for 2˜5 mins. The cells were fixed again in a mixed solution of ethanol and acetone (1/1) for about 1 min, and dried off. The cells were further treated by TRAP staining solution for 15 mins and washed with PBS. The experimental results were measured by counting the number of osteoclasts with 3 or more nuclei showing TRAP-positive reaction under a microscopic examination. Each of tests was confirmed over three times for gaining more reliable data.
As shown in the following table 7, the inhibitory effect of each experimental group on the differentiation of osteoclast versus controls was expressed by inhibitory percentage value.

First: CCCN1CCC(c2nc(-c3ccc(OCCCCCOc4ccc(C(=N)NO)cc4)cc3)c(CC3CCCC3)s2)CC1 [Example 68, N-hydroxy-4-(5-[4-(5-cyclopentylmethyl-2-(1-propyl-piperidin-4-yl)-1,3-thiazol-4-yl)phenoxy]pentoxy)-benzamidine]
Second: CCCN1CCC(c2nc(-c3ccc(OCCCCCOc4ccc(C(=N)NO)cc4)cc3)c(C)s2)CC1 [Example 72, N-hydroxy-4-(5-[4-(5-methyl-2-(1-propyl-piperidin-4-yl)-1,3-thiazol-4-yl)phenoxy]pentoxy)-benzamidine]
The inhibition at 1 µM of the first is higher: 83% for the first, 67.9% for the second.

`CC(C)c1sc(C2CCCNC2)nc1-c1ccc(OCCCCCOc2ccc(C(=N)NO)cc2)cc1` (centres unmarked) [Example 83, N-hydroxy-4-(5-[4-(5-isopropyl-2-(piperidin-3-yl)-1,3-thiazol-4-yl)phenoxy]pentoxy)-benzamidine] showed an inhibition at 1 µM of 23.8%.

same assay, conditions: Mus musculus, Osteoclast, 168 h; 1 m; co-culture of bone marrow cells and osteoblast, 7 days, TRAP-positive osteoclasts versus controls; read-out: % inhibitory activity on osteoclastogenesis

Going from `CCCCc1sc(NC(=N)N)nc1-c1ccc(OCCCCCOc2ccc(C(=N)NO)cc2)cc1` [Example 64, N-hydroxy-4-(5-[4-(5-butyl-2-guanidino-1,3-thiazol-4-yl)phenoxy]pentoxy)-benzamidine] to `N=C(N)Nc1nc(-c2ccc(OCCCCCOc3ccc(C(=N)NO)cc3)cc2)c(Cc2ccccc2)s1` [Example 66, N-hydroxy-4-(5-[4-(5-benzyl-2-guanidino-1,3-thiazol-4-yl)phenoxy]pentoxy)-benzamidine], the inhibition at 1 µM falls from 43.7% to 38.5%.

Compared with `N=C(NO)c1ccc(OCCCCCOc2ccc(-c3nc(N)sc3Cc3ccccc3)cc2)cc1` [Example 65, N-hydroxy-4-(5-[4-(2-amino-5-benzyl-1,3-thiazol-4-yl)phenoxy]pentoxy)-benzamidine], `N=C(NO)c1ccc(OCCCCCOc2ccc(-c3nc(N)sc3CCCl)cc2)cc1` [Example 77, N-hydroxy-4-(5-[4-(5-(2-chloroethyl)-2-amino-1,3-thiazol-4-yl)phenoxy]pentoxy)-benzamidine] is higher in inhibition at 1 µM: 46% for the first, 83.3% for the second.

Going from `Cc1sc(NC(=O)C(C)C)nc1-c1ccc(OCCCCCOc2ccc(C(=N)NO)cc2)cc1` [Example 69, N-hydroxy-4-(5-[4-(2-(isobutyryl)amino-5-methyl-1,3-thiazol-4-yl)phenoxy]pentoxy)-benzamidine] to `Cc1nc(-c2ccc(OCCCCCOc3ccc(C(=N)NO)cc3)cc2)c(CO)s1` [Example 75, N-hydroxy-4-(5-[4-(5-hydroxymethyl-2-methyl-1,3-thiazol-4-yl)phenoxy]pentoxy)-benzamidine], the inhibition at 1 µM falls from 99.6% to 40.2%.

Going from `CC(C)c1sc(CN2CCOCC2)nc1-c1ccc(OCCCCCOc2ccc(C(=N)NO)cc2)cc1` [Example 70, N-hydroxy-4-(5-[4-(5-isopropyl-2-morpholinomethyl-1,3-thiazol-4-yl)phenoxy]pentoxy)-benzamidine] to `CC(C)c1sc(CN)nc1-c1ccc(OCCCCCOc2ccc(C(=N)NO)cc2)cc1` [Example 73, N-hydroxy-4-(5-[4-(5-isopropyl-2-aminomethyl-1,3-thiazol-4-yl)phenoxy]pentoxy)-benzamidine], the inhibition at 1 µM rises from 32.7% to 54.2%.

Compared with `C=Cc1sc(C)nc1-c1ccc(OCCCCCOc2ccc(C(=N)NO)cc2)cc1` [Example 74, N-hydroxy-4-(5-[4-(5-vinyl-2-methyl-1,3-thiazol-4-yl)phenoxy]pentoxy)-benzamidine], `C=Cc1sc(N)nc1-c1ccc(OCCCCCOc2ccc(C(=N)NO)cc2)cc1` [Example 78, N-hydroxy-4-(5-[4-(5-vinyl-2-amino-1,3-thiazol-4-yl)phenoxy]pentoxy)-benzamidine] is higher in inhibition at 1 µM: 92.6% for the first, 97.5% for the second.

First: COCc1sc(C)nc1-c1ccc(OCCCCCOc2ccc(C(=N)NO)cc2)cc1 [Example 76, N-hydroxy-4-(5-[4-(5-methoxymethyl-2-methyl-1,3-thiazol-4-yl)phenoxy]pentoxy)-benzamidine]
Second: CCc1sc(CN)nc1-c1ccc(OCCCCCOc2ccc(C(=N)NO)cc2)cc1 [Example 82, N-hydroxy-4-(5-[4-(5-ethyl-2-aminomethyl-1,3-thiazol-4-yl)phenoxy]pentoxy)-benzamidine]
The inhibition at 1 µM of the first is higher: 99% for the first, 8.9% for the second.

`C=Cc1sc(-c2cccnc2)nc1-c1ccc(OCCCCCOc2ccc(C(=N)NO)cc2)cc1` [Example 79, N-hydroxy-4-(5-[4-(5-vinyl-2-(pyridin-3-yl)-1,3-thiazol-4-yl)phenoxy]pentoxy)-benzamidine] and `N=C(NO)c1ccc(OCCCCCOc2ccc(-c3nc(-c4cccnc4)sc3CCCl)cc2)cc1` [Example 80, N-hydroxy-4-(5-[4-(5-(2-chloroethyl)-2-(pyridin-3-yl)-1,3-thiazol-4-yl)phenoxy]pentoxy)-benzamidine] are the same in inhibition at 1 µM: 96.4% for the first, 96.4% for the second.

Going from `N=C(NO)c1ccc(OCCCCCOc2ccc(-c3nc(N)sc3C3CCCC3)cc2)cc1` [Example 81, N-hydroxy-4-(5-[4-(2-amino-5-cyclopentyl-1,3-thiazol-4-yl)phenoxy]pentoxy)-benzamidine] to `N=C(NO)c1ccc(OCCCCCOc2ccc(-c3nc(NC(=O)c4cccnc4)sc3CC3CCCC3)cc2)cc1` [Example 89, N-hydroxy-4-(5-[4-(5-cyclopentylmethyl-2-(3-pyridylcarbonyl)amino-1,3-thiazol-4-yl)phenoxy]pentoxy)-benzamidine], the inhibition at 1 µM rises from 29.5% to 81.2%.

Compared with `CCNc1nc(-c2ccc(OCCCCCOc3ccc(C(=N)NO)cc3)cc2)cs1` [Example 84, N-hydroxy-4-(5-[4-(2-ethylamino-1,3-thiazol-4-yl)phenoxy]pentoxy)-benzamidine], `CCS(=O)(=O)Nc1nc(-c2ccc(OCCCCCOc3ccc(C(=N)NO)cc3)cc2)cs1` [Example 85, N-hydroxy-4-(5-[4-(2-ethanesulfonylamino-1,3-thiazol-4-yl)phenoxy]pentoxy)-benzamidine] is lower in inhibition at 1 µM: 100% for the first, 5.3% for the second.

same assay, conditions: Mus musculus, Osteoclast, 168 h; 1 μm; co-culture of bone marrow cells and osteoblast, 7 days, TRAP-positive osteoclasts versus controls; read-out: % inhibitory activity on osteoclastogenesis

`Cc1nc(-c2ccc(OCCCCCOc3ccc(C(=N)N)cc3)cc2)cs1` [Example 52, 4-(5-[4-(2-methyl-1,3-thiazol-4-yl)phenoxy]pentoxy)-benzamidine] and `CC(C)c1nc(-c2ccc(OCCCCCOc3ccc(C(=N)N)cc3)cc2)cs1` [Example 53, 4-(5-[4-(2-isopropyl-1,3-thiazol-4-yl)phenoxy]pentoxy)-benzamidine] are the same in inhibition at 1 µM: 0% for the first, 0% for the second.

First: Cc1nc(-c2ccc(OCCCCCOc3ccc(C(=N)N)cc3)cc2)c(C)s1 [Example 54, 4-(5-[4-(2,5-dimethyl-1,3-thiazol-4-yl)phenoxy]pentoxy)-benzamidine]
Second: CCc1sc(C(C)C)nc1-c1ccc(OCCCCCOc2ccc(C(=N)N)cc2)cc1 [Example 55, 4-(5-[4-(5-ethyl-2-isopropyl-1,3-thiazol-4-yl)phenoxy]pentoxy)-benzamidine]
The inhibition at 1 µM of the first is higher: 94.2% for the first, 67.8% for the second.

Compared with `CCc1sc(-c2ccccc2)nc1-c1ccc(OCCCCCOc2ccc(C(=N)N)cc2)cc1` [Example 56, 4-(5-[4-(5-ethyl-2-phenyl-1,3-thiazol-4-yl)phenoxy]pentoxy)-benzamidine], `CCc1sc(N)nc1-c1ccc(OCCCCCOc2ccc(C(=N)NO)cc2)cc1` [Example 60, N-hydroxy-4-(5-[4-(2-amino-5-ethyl-1,3-thiazol-4-yl)phenoxy]pentoxy)-benzamidine] is lower in inhibition at 1 µM: 58.7% for the first, 28.2% for the second.

First: CC(C)c1sc(N)nc1-c1ccc(OCCCCCOc2ccc(C(=N)NO)cc2)cc1 [Example 61, N-hydroxy-4-(5-[4-(2-amino-5-isopropyl-1,3-thiazol-4-yl)phenoxy]pentoxy)-benzamidine]
Second: CC(C)c1sc(NC(=N)N)nc1-c1ccc(OCCCCCOc2ccc(C(=N)NO)cc2)cc1 [Example 62, N-hydroxy-4-(5-[4-(2-guanidino-5-isopropyl-1,3-thiazol-4-yl)phenoxy]pentoxy)-benzamidine]
The inhibition at 1 µM of the first is lower: 0% for the first, 19.1% for the second.
